Data as given in US20130158112A1, “COMPOSITIONS AND METHODS FOR INHIBITING BETA AMYLOID SECRETION” (priority 2011, published 2013).
Like-named read-outs stand apart in the source and are kept apart here.

How the values were obtained:
[1] = test system: Aβ secretion; test: Secreted total Aβ ELISA in conditioned media of H4βAPP695 wt cells; format: cell-based, human; settings: for inhibition at 10 µM / inhibition at 30 µM: Homo sapiens, 24 h, H4βAPP695 wt cells; for inhibition at 10 µM: read-out: Total Aβ (% decrease) 10 μM Mean; for inhibition at 30 µM: read-out: Total Aβ (% decrease) 30 μM Mean; for Aβ secretion inhibiting activity (structure activity summary): in words
Experimental: (§1) H4βAPP695 wt cells, a human […] cell line stably transfected with a wtβAPP695 expression vector construct under the control of a CMV promoter (kindly provided by Dr. Chris Eckman from Mayo Clinic, Florida) were cultured as previously described. Twenty-four hours before drug treatment, the media was replaced with serum-free media. Cells were then incubated with drugs (dissolved in DMSO) or vehicle for 24 h for collection of conditioned media and cell lysates. For the PKC inhibitors experiment, three inhibitors were treated 30 min prior to drug challenge. Primary cortical neurons were prepared from embryonic day 18 APP and presenilin 1 (APPswe, PSEN1dE9) transgenic mice on the C57BL/6 genetic background (Jackson Laboratories, strain no. 5864) as previously described. THLE-3 human hepatoma cells (from ATCC) were plated in 24-well plates that were precoated with 10 μg/mL bovine serum albumin, 10 μg/mL fibronectin, and 30 μg/mL bovine type I collagen. The cells were grown in BEGM media (Clonetics) until confluent and treated with drugs at 20 μM for 24 h. This conditioned media was harvested, diluted 1:1 in serum-free medium, and incubated with H4βAPP695 wt cells for 24 h prior to analysis of secreted Aβ, which was compared to the effect of 10 μM drug treatments without prior incubation with the THLE-3 cells. Caco-2 cells (ATCC) were plated in 12-well plates with Transwell inserts (Costar) at 70000 cells per well and grown for 21 days. The media volume of the apical and basal chambers was 0.5 and 1.5 mL, respectively. Transepithelial resistance was measured in each well and found to be >160 Ω/cm^2. Drugs at 40 μM and 20 μg/mL of lucifer yellow were added in serum-free medium to the apical chamber. Four hours later, the basal chamber media was harvested and used to measure lucifer yellow fluorescence to confirm monolayer integrity as well as for treatment of H4βAPP695 wt cells for 24 h prior to analysis of secreted Aβ, which was compared to the effect of direct addition of 10 μM of the corresponding drug.

[2] = test system: THLE-3 human hepatoma cells; test: Drug activity persistence after incubation with THLE-3 hepatoma cells; format: in vitro ADME; settings: for inhibition at 10 µM: Homo sapiens, THLE3, 24 h
Experimental: as §1
To screen for resistance to metabolism, 1 and eight noncytotoxic analogues with >50% Aβ reducing activity (compounds 27, 29, 48, 52, 53, 65, 73, and 76) were incubated at 20 μM for 24 h with or without THLE-3 human hepatoma cells.

[3] = test system: H4βAPP695 wt cells; test: Cytotoxicity by total cell protein content (BCA) of H4βAPP695 wt cells; settings: cytotoxicity
Experimental: Cells were washed with cold phosphate buffered saline (PBS) and lysed on ice by vigorous mixing over 15 min with RIPA buffer containing 50 mM Tris-HCl (pH 8.0), 150 mM sodium chloride, 1% NP-40, 0.5% sodium deoxycholate, and 0.1% SDS, supplemented with 10% protease inhibitor cocktail and 2 mM PMSF. After centrifugation at 14000 g for 30 min to remove nuclei and other debris at 4° C., the protein content of the supernatants was measured using the BCA assay kit (Pierce).
The initial screen was performed in 96-well plates with drugs distributed by the hanging drop method yielding estimated drug levels of 10-25 μM. Total Aβ levels in the 24 h conditioned media were measured by a sandwich ELISA assay, and cytotoxicity was assessed by methylene blue staining of the cells in the wells, as previously described.

SMILES	% remaining Activity ([2]; after 24 h incubation with hepatoma cells) [%]	melting point [°C]	inhibition at 10 µM [1] [%]	inhibition at 30 µM [1] [%]	Aβ secretion inhibiting activity (structure activity summary) [1]	inhibition at 10 µM ([2]; 10 μM on H4 cells, without preincubation with hepatoma cells, read-out: hepatoma incubation No total Aβ (% decrease)) [%]	inhibition at 10 µM ([2]; 20 μM preincubated 24 h with THLE-3 hepatoma cells, diluted to 10 μM on H4 cells, read-out: hepatoma incubation Yes total Aβ (% decrease)) [%]	Cell protein (% decrease) 10 μM Mean [3] [%]	Cell protein (% decrease) 30 μM Mean [3] [%]
COc1cccc(OC)c1C(=O)NCCSCc1cccc(Cl)c1 [Compound 36, N-[2-(3-Chloro-benzylsulfanyl)-ethyl]-2,6-dimethoxy-benzamide]		90 to 91	-13.1	11.2	not well tolerated			7.1	−0.6
O=C(NCCS(=O)(=O)Cc1cccc(O)c1)c1c(Cl)cccc1Cl [Compound 31, 2,6-Dichloro-N-[2-(3-hydroxy-phenylmethanesulfonyl)-ethyl]-benzamide]		139 to 141	-10.1	9.6	No tested substitutions in the linker region were well tolerated			7.7	4.4
O=C(NCCSCc1cccc(O)c1)c1c(O)cccc1O [Compound 35, 2,6-Dihydroxy-N-[2-(3-hydroxy-benzylsulfanyl)-ethyl]-benzamide]		61 to 62	-22.5	-25.2	not well tolerated			10.5	14.3

The next lines start with results.

% remaining Activity ([2]; after 24 h incubation with hepatoma cells) [%]	melting point [°C]	SMILES	inhibition at 10 µM [1] [%]	inhibition at 30 µM [1] [%]	Aβ secretion inhibiting activity (structure activity summary) [1]	inhibition at 10 µM ([2]; 10 μM on H4 cells, without preincubation with hepatoma cells, read-out: hepatoma incubation No total Aβ (% decrease)) [%]	inhibition at 10 µM ([2]; 20 μM preincubated 24 h with THLE-3 hepatoma cells, diluted to 10 μM on H4 cells, read-out: hepatoma incubation Yes total Aβ (% decrease)) [%]	Cell protein (% decrease) 10 μM Mean [3] [%]	Cell protein (% decrease) 30 μM Mean [3] [%]
41		O=C(NCCSCc1cccc(O)c1)c1c(Cl)cccc1Cl [Compound 29, 2,6-dichloro-N-[2-(3-hydroxy-benzylsulfanyl)-ethyl]-benzamide]	> 50	67.7	good activity	56.4	23.1	6.3	6.6
	93 to 94	O=C(NCCSCc1cccc(Cl)c1)c1c(C(F)(F)F)cccc1C(F)(F)F [Compound 74, N-[2-(3-Chloro-benzylsulfanyl)-ethyl]-2,6-bis-trifluoromethyl-benzamide]	6.2	13.5	not well tolerated			−4.2	−0.4
	55 to 57	O=C(NCCSCc1cccc(Cl)c1)c1c(Br)cccc1Br [Compound 54, 2,6-Dibromo-N-[2-(3-chloro-benzylsulfanyl)-ethyl]-benzamide]		83.4	maintained activity			6.7	20.8
	70 to 72	O=C(NCCOCc1cccc(Cl)c1)c1c(Cl)cccc1Cl [Compound 72, 2,6-Dichloro-N-[2-(3-chloro-benzyloxy)-ethyl]-benzamide]	10.5	-5.1	No tested substitutions in the linker region were well tolerated			−9.9	4.2
